Experimental data as given in patent US20240280564A1, “ASSAY FOR EXTRINSIC INHIBITION” (The J. David Gladstone Institutes, a testamentary trust …, priority 2021, published 2024).

Key:
primary rat OPCs = assay: OPC-X-screen: high-content imaging of MBP+ OLs and GFAP+ astrocytes in fibrinogen-treated OPCs; assay type: cell-based; settings: for OPC differentiation to mature MBP+ OLs in the presence of fibrinogen: myelin-promoting compound screen, fibrinogen 1.5 mg/ml, benztropine, clemastine, quetiapine, miconazole, (±)U-50488, DMH1 1 μM, clobetasol 5 μM, XAV-939 0.1 μM; for Cell-fate switch of OPCs to GFAP+ cells by fibrinogen: fibrinogen-treated primary rat OPCs
BMP target protein ID2 = assay: Immunoblot of ID2 protein in fibrinogen-treated primary rat OPCs; assay type: cell-based
Method: (§1) Cells or tissue were lysed in RIPA lysis buffer (Thermo Fisher Scientific) supplemented with protease/phosphatase inhibitor cocktails (Calbiochem) and lysates were cleared by centrifuging at 13,000×g for 15 minutes at 4° C. Equal amounts of protein were loaded in 4%-12% bis-tris gels (Thermo Fisher Scientific) and analyzed by western blotting. Bands were visualized with HRP-conjugated secondary antibodies (Cell Signaling Technology). Densitometry was performed using ImageJ Software (NIH) with values for each band normalized to GAPDH loading controls from the same membrane. Primary antibodies were: Id2 (1:1000, rabbit monoclonal, #M213, CalBioreagents); phospho-Smad1/5 (1:1000, rabbit monoclonal, #9516, Cell Signaling Technology); GAPDH (1:1000, rabbit monoclonal, #2118, Cell Signaling Technology)

[1] = cited from earlier work
[2] = system: BMP signal transducers SMAD1/5 (phosphorylation); assay: Immunoblot of phospho-SMAD1/5 in fibrinogen-treated primary rat OPCs; assay type: cell-based
Method: as §1

MOG35-55 EAE mice = assay: Chronic MOG35-55 EAE in NG2-CreERTM:RosatdTomato/+ mice, therapeutic treatment; assay type: in vivo, mouse
NOD-MOG35-55 EAE mice = assay: Progressive NOD-MOG35-55 EAE, therapeutic treatment; assay type: in vivo, mouse
[3] = fibrinogen 2.5 mg/ml, three-fold serial dilutions 5 μM to 2 nM, 3 days
[4] = fibrinogen alone in the OPC-X assay

Clc1ccc(COC(Cn2ccnc2)c2ccc(Cl)cc2Cl)c(Cl)c1 (stereo not drawn) [miconazole]
OPC differentiation to mature MBP+ OLs in the presence of fibrinogen (primary rat OPCs; 3 days): did not overcome extrinsic inhibition of OPC differentiation by fibrinogen

CC(C)Oc1ccc(-c2cnc3c(-c4ccnc5ccccc45)cnn3c2)cc1 [DMH1]
Fibrinogen-induced expression of ID2 (BMP target protein ID2): blocked
Cell-fate switch of OPCs to GFAP+ cells by fibrinogen (primary rat OPCs; 3 days): abolished
OPC differentiation to mature MBP+ OLs in the presence of fibrinogen (primary rat OPCs; 3 days): restored OPC differentiation to mature OLs to control levels
Water solubility [1]: not water-soluble
Fibrinogen-induced phosphorylation of SMAD1/5 [2]: blocked

OCCOCCN1CCN(C2=Nc3ccccc3Sc3ccccc32)CC1 [quetiapine]
OPC differentiation to mature MBP+ OLs in the presence of fibrinogen (primary rat OPCs; 3 days): did not overcome extrinsic inhibition of OPC differentiation by fibrinogen

CN1CCC[C@@H]1CCO[C@](C)(c1ccccc1)c1ccc(Cl)cc1 [clemastine]
Fibrinogen-induced expression of ID2 (BMP target protein ID2): did not block
OPC differentiation to mature OLs in the presence of fibrinogen (clemastine dose-response) (primary rat OPCs; fibrinogen 2.5 mg/ml, differentiation media without T3 or growth factors, 3 days): did not enhance OPC differentiation to mature OLs in the presence of fibrinogen
Cell-fate switch of OPCs to GFAP+ cells by fibrinogen (primary rat OPCs; 3 days): did not inhibit SMAD1/5 phosphorylation, a key pathway downstream of BMP receptor activation, or rescue OPC cell fate switch to astrocytes
OPC differentiation to mature MBP+ OLs in the presence of fibrinogen (primary rat OPCs; 3 days): did not overcome extrinsic inhibition of OPC differentiation by fibrinogen
Number of MBP+ cells in control conditions (primary rat OPCs; no fibrinogen, differentiation media without T3 or growth factors, 3 days): increased
Fibrinogen-induced phosphorylation of SMAD1/5 [2]: did not block

c1cc(-c2cnn3cc(-c4ccc(N5CCNCC5)cc4)cnc23)c2cccnc2c1 [LDN-212854]
Clinical scores (MOG35-55 EAE mice; 6 mg/kg twice daily for 14 days starting at peak disease, vs saline): significantly improved
Formation of OPC-derived GFAP+ astrocytes (MOG35-55 EAE mice; 14 day treatment, fate mapping): abolished
Proportion of NG2tdTomato+ OPCs differentiated into GST-pi+ mature OLs (MOG35-55 EAE mice; 14 day treatment, fate mapping, vs controls): increased
ID2 expression in NG2 cells in the EAE white matter (MOG35-55 EAE mice; 14 day treatment, vs saline): decreased
Myelin damage (myelin circularity, in vivo 2P imaging) (MOG35-55 EAE mice; chronic, vs saline): markedly reduced
Perivascular NG2 clusters (in vivo 2P imaging) (MOG35-55 EAE mice; chronic, vs saline): markedly reduced
Demyelination in spinal cord (MOG35-55 EAE mice; vs saline): reduced
Fibrinogen deposition in spinal cord (MOG35-55 EAE mice; vs saline): reduced
Group mean of maximum clinical scores (NOD-MOG35-55 EAE mice; 30 days treatment, five-point scale, saline 2.36): 1.75
Clinical scores (NOD-MOG35-55 EAE mice; treated for 30 days, vs saline): significantly improved
Demyelination in spinal cord (NOD-MOG35-55 EAE mice; vs saline): reduced
Fibrinogen deposition in spinal cord (NOD-MOG35-55 EAE mice; vs saline): reduced
Formation of GFAP+ astrocytes from fibrinogen-treated OPCs, dose response (primary rat OPCs; [3]): blocked
Mature OL (MBP+) differentiation of fibrinogen-treated OPCs, dose response (primary rat OPCs; [3]): restored mature OL differentiation
Water solubility [1]: water-soluble

fibrinogen
Decrease of MBP+ mature OLs as compared to controls (primary rat OPCs; [4]): ~60%
Increase of GFAP+ astrocyte-like cells as compared to controls (primary rat OPCs; [4]): ~60%

C[C@H]1C[C@H]2[C@@H]3CCC4=CC(=O)C=C[C@]4(C)[C@@]3(F)[C@@H](O)C[C@]2(C)[C@@]1(O)C(=O)CCl [clobetasol]
OPC differentiation to mature MBP+ OLs in the presence of fibrinogen (primary rat OPCs; 3 days): did not overcome extrinsic inhibition of OPC differentiation by fibrinogen

Oc1nc(-c2ccc(C(F)(F)F)cc2)nc2c1CSCC2 [XAV-939]
OPC differentiation to mature MBP+ OLs in the presence of fibrinogen (primary rat OPCs; 3 days): did not overcome extrinsic inhibition of OPC differentiation by fibrinogen

CN1[C@@H]2CC[C@H]1C[C@@H](OC(c1ccccc1)c1ccccc1)C2 [benztropine]
OPC differentiation to mature MBP+ OLs in the presence of fibrinogen (primary rat OPCs; 3 days): did not overcome extrinsic inhibition of OPC differentiation by fibrinogen
